Measurements published in patent US9695155B2, “Herbicidal substituted pyrimidinyloxy benzene compounds” (E. I. DU PONT DE NEMOURS AND COMPANY, priority 2013, dated 2017).

Experiments:
wild poinsettia = assay: Test E preemergence; format: in vivo, Euphorbia heterophylla; conditions: for Poinsettia, Wild plant response rating: scale 0 to 100 (0 no effect, 100 complete control); for Plant response rating, Poinsettia, Wild: 125 g ai/ha, scale 0 to 100, 0 no effect, 100 complete control
Method in brief: (§1)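 Compound in a non-phytotoxic solvent mixture with surfactant was applied preemergence to seeds in silt loam soil, or postemergence to plants 2 to 18 cm tall grown in peat-based potting medium. Plants were kept in a greenhouse for 14 to 21 days, then rated visually against untreated controls on a 0 (no effect) to 100 (complete control) scale.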

kochia = assay: Test E preemergence; format: in vivo, Kochia scoparia; conditions: for Kochia plant response rating: scale 0 to 100 (0 no effect, 100 complete control); for Plant response rating, Kochia: 125 g ai/ha, scale 0 to 100, 0 no effect, 100 complete control
Method in brief: as §1

large (Lg) crabgrass = assay: Test E preemergence; format: in vivo, Digitaria sanguinalis; conditions: for Crabgrass, Large plant response rating: scale 0 to 100 (0 no effect, 100 complete control); for Plant response rating, Crabgrass, Large: 125 g ai/ha, scale 0 to 100, 0 no effect, 100 complete control
Method in brief: as §1

green foxtail = assay: Test E preemergence; format: in vivo, Setaria viridis; conditions: for Foxtail, Green plant response rating: scale 0 to 100 (0 no effect, 100 complete control); for Plant response rating, Foxtail, Green: 125 g ai/ha, scale 0 to 100, 0 no effect, 100 complete control
Method in brief: as §1

rice = assay: Test C flooded paddy test; format: in vivo, Oryza sativa; conditions: Flood, scale 0 to 100 (0 no effect, 100 complete control), 13 to 15 days
Method in brief: (§2)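 Ratings were visual and made relative to untreated controls after 13 to 15 greenhouse days.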

barnyardgrass = assay: Test C flooded paddy test; format: in vivo, Echinochloa crus-galli; conditions: Flood, scale 0 to 100 (0 no effect, 100 complete control), 13 to 15 days
Method in brief: as §2

velvetleaf = assay: Test E preemergence; format: in vivo, Abutilon theophrasti; conditions: for Velvetleaf plant response rating: scale 0 to 100 (0 no effect, 100 complete control); for Plant response rating, Velvetleaf: 125 g ai/ha, scale 0 to 100, 0 no effect, 100 complete control
Method in brief: as §1

yellow nutsedge = assay: Test E preemergence; format: in vivo, Cyperus esculentus; conditions: for Nutsedge, Yellow plant response rating: scale 0 to 100 (0 no effect, 100 complete control); for Plant response rating, Nutsedge, Yellow: 125 g ai/ha, scale 0 to 100, 0 no effect, 100 complete control
Method in brief: as §1

Brazilian crabgrass = assay: Test E preemergence; format: in vivo, Digitaria horizontalis; conditions: for Crabgrass, Brazil plant response rating: scale 0 to 100 (0 no effect, 100 complete control); for Plant response rating, Crabgrass, Brazil: 125 g ai/ha, scale 0 to 100, 0 no effect, 100 complete control
Method in brief: as §1

corn = assay: Test E preemergence; format: in vivo, Zea mays; conditions: for Corn plant response rating: scale 0 to 100 (0 no effect, 100 complete control); for Plant response rating, Corn: 125 g ai/ha, scale 0 to 100, 0 no effect, 100 complete control
Method in brief: as §1

lambsquarters = assay: Test E preemergence; format: in vivo, Chenopodium album; conditions: for Lambsquarters plant response rating: scale 0 to 100 (0 no effect, 100 complete control); for Plant response rating, Lambsquarters: 125 g ai/ha, scale 0 to 100, 0 no effect, 100 complete control
Method in brief: as §1

ducksalad = assay: Test C flooded paddy test; format: in vivo, Heteranthera limosa; conditions: Flood, scale 0 to 100 (0 no effect, 100 complete control), 13 to 15 days
Method in brief: as §2

sandbur = assay: Test E preemergence; format: in vivo, Cenchrus echinatus; conditions: for Sandbur plant response rating: scale 0 to 100 (0 no effect, 100 complete control); for Plant response rating, Sandbur: 125 g ai/ha, scale 0 to 100, 0 no effect, 100 complete control
Method in brief: as §1

blackgrass = assay: Test A postemergence; format: in vivo, Alopecurus myosuroides; conditions: for Blackgrass plant response rating: 125 g ai/ha
Method in brief: (§3)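 Compounds in non-phytotoxic solvent with surfactant applied as soil spray preemergence, or postemergence to plants 2-10 cm at one- to two-leaf stage, in loam/sand. After approximately 10 days in greenhouse, injury rated visually versus untreated controls, 0 (no effect) to 100 (complete control).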

ragweed = assay: Test A postemergence; format: in vivo, Ambrosia elatior; conditions: for Ragweed plant response rating: 125 g ai/ha
Method in brief: as §3

[1] = 31 g ai/ha, 0 to 100 scale, 0 no effect, 100 complete control
[2] = 0 to 100 scale where 0 is no effect and 100 is complete control
[3] = 500 g ai/ha, 0 to 100 scale where 0 is no effect and 100 is complete control

FC(F)c1cccc(Oc2ncc(Cl)cn2)c1-n1cc(Br)cn1 [Compound 194, 2-[2-(4-bromo-1H-pyrazol-1-yl)-3-(difluoromethyl)phenoxy]-5-chloropyrimidine]
Poinsettia, Wild plant response rating (wild poinsettia; 31 g ai/ha): 10 | Poinsettia, Wild plant response rating (wild poinsettia; 62 g ai/ha): 0 | Kochia plant response rating (kochia; 31 g ai/ha): 5 | Kochia plant response rating (kochia; 62 g ai/ha): 35 | Crabgrass, Large plant response rating (large (Lg) crabgrass; 31 g ai/ha): 85 | Crabgrass, Large plant response rating (large (Lg) crabgrass; 62 g ai/ha): 95 | Foxtail, Green plant response rating (green foxtail; 31 g ai/ha): 35 | Foxtail, Green plant response rating (green foxtail; 62 g ai/ha): 80 | Plant response rating, Rice (rice; 31 g ai/ha): 10 | Plant response rating, Rice (rice; 62 g ai/ha): 10 | Plant response rating, Rice (rice; 125 g ai/ha): 10 | Plant response rating, Rice (rice; 250 g ai/ha): 10 | Plant response rating, Barnyardgrass (barnyardgrass; 31 g ai/ha): 0 | Plant response rating, Barnyardgrass (barnyardgrass; 62 g ai/ha): 0 | Plant response rating, Barnyardgrass (barnyardgrass; 125 g ai/ha): 0 | Plant response rating, Barnyardgrass (barnyardgrass; 250 g ai/ha): 0 | Velvetleaf plant response rating (velvetleaf; 31 g ai/ha): 5 | Velvetleaf plant response rating (velvetleaf; 62 g ai/ha): 25 | Nutsedge, Yellow plant response rating (yellow nutsedge; 31 g ai/ha): 0 | Nutsedge, Yellow plant response rating (yellow nutsedge; 62 g ai/ha): 20 | Crabgrass, Brazil plant response rating (Brazilian crabgrass; 31 g ai/ha): 65 | Crabgrass, Brazil plant response rating (Brazilian crabgrass; 62 g ai/ha): 98 | Corn plant response rating (corn; 31 g ai/ha): 0 | Corn plant response rating (corn; 62 g ai/ha): 0 | Lambsquarters plant response rating (lambsquarters; 31 g ai/ha): 80 | Lambsquarters plant response rating (lambsquarters; 62 g ai/ha): 100 | Plant response rating, Ducksalad (ducksalad; 31 g ai/ha): 65 | Plant response rating, Ducksalad (ducksalad; 62 g ai/ha): 80 | Plant response rating, Ducksalad (ducksalad; 125 g ai/ha): 90 | Plant response rating, Ducksalad (ducksalad; 250 g ai/ha): 100 | Sandbur plant response rating (sandbur; 31 g ai/ha): 20 | Sandbur plant response rating (sandbur; 62 g ai/ha): 20

N#Cc1cnn(-c2c(CF)cccc2Oc2ncc(F)cn2)c1 [Compound 151]
Poinsettia, Wild plant response rating (wild poinsettia; 31 g ai/ha): 60 | Poinsettia, Wild plant response rating (wild poinsettia; 62 g ai/ha): 100 | Plant response rating, Poinsettia, Wild (wild poinsettia): 100 | Kochia plant response rating (kochia; 31 g ai/ha): 80 | Kochia plant response rating (kochia; 62 g ai/ha): 90 | Plant response rating, Kochia (kochia): 100 | Plant response rating, Blackgrass (blackgrass; [1]): 20 | Blackgrass plant response rating (blackgrass; [2]): 50 | Crabgrass, Large plant response rating (large (Lg) crabgrass; 16 g ai/ha): 0 | Crabgrass, Large plant response rating (large (Lg) crabgrass; 31 g ai/ha): 5 | Crabgrass, Large plant response rating (large (Lg) crabgrass; 62 g ai/ha): 60 | Plant response rating, Crabgrass, Large (large (Lg) crabgrass): 100 | Foxtail, Green plant response rating (green foxtail; 16 g ai/ha): 20 | Foxtail, Green plant response rating (green foxtail; 31 g ai/ha): 20 | Foxtail, Green plant response rating (green foxtail; 62 g ai/ha): 70 | Plant response rating, Foxtail, Green (green foxtail): 75 | Velvetleaf plant response rating (velvetleaf; 31 g ai/ha): 95 | Velvetleaf plant response rating (velvetleaf; 62 g ai/ha): 100 | Plant response rating, Velvetleaf (velvetleaf): 100 | Nutsedge, Yellow plant response rating (yellow nutsedge; 31 g ai/ha): 0 | Nutsedge, Yellow plant response rating (yellow nutsedge; 62 g ai/ha): 0 | Plant response rating, Nutsedge, Yellow (yellow nutsedge): 0 | Crabgrass, Brazil plant response rating (Brazilian crabgrass; 16 g ai/ha): 0 | Crabgrass, Brazil plant response rating (Brazilian crabgrass; 31 g ai/ha): 35 | Crabgrass, Brazil plant response rating (Brazilian crabgrass; 62 g ai/ha): 70 | Plant response rating, Crabgrass, Brazil (Brazilian crabgrass): 75 | Corn plant response rating (corn; 16 g ai/ha): 0 | Corn plant response rating (corn; 31 g ai/ha): 0 | Corn plant response rating (corn; 62 g ai/ha): 0 | Plant response rating, Corn (corn): 0 | Lambsquarters plant response rating (lambsquarters; 31 g ai/ha): 100 | Lambsquarters plant response rating (lambsquarters; 62 g ai/ha): 100 | Plant response rating, Lambsquarters (lambsquarters): 100 | Sandbur plant response rating (sandbur; 31 g ai/ha): 0 | Sandbur plant response rating (sandbur; 62 g ai/ha): 0 | Plant response rating, Sandbur (sandbur): 35 | Plant response rating, Ragweed (ragweed; [1]): 50 | Ragweed plant response rating (ragweed; [2]): 100

FC(F)(F)COc1cnn(-c2ccccc2Oc2ncc(Cl)cn2)c1 [Compound 138, 5-chloro-2-[2-[4-(2,2,2-trifluoroethoxy)-1H-pyrazol-1-yl]phenoxy]pyrimidine]
Poinsettia, Wild plant response rating (wild poinsettia; 16 g ai/ha): 0 | Poinsettia, Wild plant response rating (wild poinsettia; 31 g ai/ha): 25 | Poinsettia, Wild plant response rating (wild poinsettia; 62 g ai/ha): 35 | Plant response rating, Poinsettia, Wild (wild poinsettia): 25 | Kochia plant response rating (kochia; 16 g ai/ha): 60 | Kochia plant response rating (kochia; 31 g ai/ha): 75 | Kochia plant response rating (kochia; 62 g ai/ha): 90 | Plant response rating, Kochia (kochia): 100 | Blackgrass plant response rating (blackgrass; [2]): 50 | Plant response rating, Blackgrass (blackgrass; [3]): 90 | Crabgrass, Large plant response rating (large (Lg) crabgrass; 16 g ai/ha): 0 | Crabgrass, Large plant response rating (large (Lg) crabgrass; 31 g ai/ha): 70 | Crabgrass, Large plant response rating (large (Lg) crabgrass; 62 g ai/ha): 98 | Plant response rating, Crabgrass, Large (large (Lg) crabgrass): 100 | Foxtail, Green plant response rating (green foxtail; 16 g ai/ha): 0 | Foxtail, Green plant response rating (green foxtail; 31 g ai/ha): 0 | Foxtail, Green plant response rating (green foxtail; 62 g ai/ha): 20 | Plant response rating, Foxtail, Green (green foxtail): 98 | Velvetleaf plant response rating (velvetleaf; 16 g ai/ha): 40 | Velvetleaf plant response rating (velvetleaf; 31 g ai/ha): 70 | Velvetleaf plant response rating (velvetleaf; 62 g ai/ha): 90 | Plant response rating, Velvetleaf (velvetleaf): 100 | Nutsedge, Yellow plant response rating (yellow nutsedge; 16 g ai/ha): 0 | Nutsedge, Yellow plant response rating (yellow nutsedge; 31 g ai/ha): 10 | Nutsedge, Yellow plant response rating (yellow nutsedge; 62 g ai/ha): 15 | Plant response rating, Nutsedge, Yellow (yellow nutsedge): 40 | Crabgrass, Brazil plant response rating (Brazilian crabgrass; 16 g ai/ha): 0 | Crabgrass, Brazil plant response rating (Brazilian crabgrass; 31 g ai/ha): 40 | Crabgrass, Brazil plant response rating (Brazilian crabgrass; 62 g ai/ha): 90 | Plant response rating, Crabgrass, Brazil (Brazilian crabgrass): 98 | Corn plant response rating (corn; 16 g ai/ha): 0 | Corn plant response rating (corn; 31 g ai/ha): 0 | Corn plant response rating (corn; 62 g ai/ha): 15 | Plant response rating, Corn (corn): 35 | Lambsquarters plant response rating (lambsquarters; 16 g ai/ha): 0 | Lambsquarters plant response rating (lambsquarters; 31 g ai/ha): 50 | Lambsquarters plant response rating (lambsquarters; 62 g ai/ha): 100 | Plant response rating, Lambsquarters (lambsquarters): 100 | Sandbur plant response rating (sandbur; 16 g ai/ha): 0 | Sandbur plant response rating (sandbur; 31 g ai/ha): 0 | Sandbur plant response rating (sandbur; 62 g ai/ha): 10 | Plant response rating, Sandbur (sandbur): 15 | Ragweed plant response rating (ragweed; [2]): 30 | Plant response rating, Ragweed (ragweed; [3]): 60
